Test results as given in article PMC9188586, “Design, synthesis and evaluation of novel tetrahydropyridothienopyrimidin-ureas as cytotoxic and anti-angiogenic agents” (Scientific Reports, 2022).

Key:
SW480 (colon cancer) = assay: MTT antiproliferative assay, SW480; format: cell-based; details: Homo sapiens, SW480, 48 h incubation
Description: (§1) Two series of new tetrahydropyridothienopyrimidines were evaluated for their cytotoxicity against a panel of cell lines, including MCF-7 (breast cancer), SW480 (colon cancer), PC-3 (prostate cancer), HEPG-2 (liver cancer) and HUVEC (human umbilical vein endothelial cell) using 3-(4,5-dimethyl- thiazol-2-yl)-2,5-diphenyltetrazolium bromide (MTT) assay. Sorafenib was used as a positive control. The cytotoxicity is expressed as the concentration that inhibits 50% of cell viability (IC50). […] The preliminary SAR is evaluated on the basis of cytotoxicity results of phenyl derivatives (11a–k) and pyridine derivatives (11l–11y).The mesomeric effect didn’t improve the cytotoxicity of compound 11d in the first series.
(§2) Cytotoxicity of the compounds was measured by detecting the ability of cells in transforming MTT into a purple formazan dye. The different cell lines were provided by the National Cell Bank of Iran (Pastor Institute, Tehran, Iran). The required materials and reagents were purchased from Sigma. After the cell culture in RPMI-1640 medium and DMEM containing 10% FBS (Gibco, Milano, Italy), the suspension of MCF-7 (7000) and other cells (5000) were poured into 96 well plates and incubated in a humidified incubator containing 5% CO2 at 37 °C for 24 h. Subsequently, a solution of the compounds in DMSO was added to these plates and incubated for 48 h. After incubation, the solution of 5% 3-(4,5-Dimethyl-2-thiazolyl)-2,5-diphenyl-2H-tetrazolium bromide (MTT) was added to all the wells and incubation was continued for another 4 h. The record of color intensity of the formazan solution was at 570 nm by Bio-Rad microplate reader (Model 680) which reflects the cell growth condition.

MCF-7 (breast cancer) = assay: MTT antiproliferative assay, MCF-7; format: cell-based; details: Homo sapiens, MCF7, 48 h incubation
Description: as §1, §2

HEPG-2 (liver cancer) = assay: MTT antiproliferative assay, HEPG-2; format: cell-based; details: Homo sapiens, HepG2, 48 h incubation
Description: as §1, §2

PC-3 (prostate cancer) = assay: MTT antiproliferative assay, PC-3; format: cell-based; details: 48 h incubation
Description: as §1, §2

[1] = tested on: HUVEC (human umbilical vein endothelial cell); assay: MTT antiproliferative assay, HUVEC; format: cell-based; details: for IC50: Homo sapiens, HUVEC, MTT assay, 48 h incubation
Description: as §1, §2

SMILES | IC50 (SW480 (colon cancer)) | IC50 (MCF-7 (breast cancer)) | IC50 (HEPG-2 (liver cancer)) | IC50 (PC-3 (prostate cancer)) | IC50 [1] | melting point | increase of cytotoxicity against HUVEC on moving chlorine to para position ([1]; 11t vs 11u)
O=C(Nc1cccc(Cl)c1)Nc1nnc(Sc2ncnc3sc4c(c23)CCN(Cc2ccncc2)C4)s1 [Compound 11t, 1-(3-chlorophenyl)-3-(5-((7-(pyridin-4-ylmethyl)-5,6,7,8-tetrahydropyrido[4',3':4,5]thieno[2,3-d]pyrimidin-4-yl)thio)-1,3,4-thiadiazol-2-yl)urea] | 14.6 ± 0.32 µM | 12.68 ± 0.05 µM | 85 ± 3.4 µM | 3.02 ± 1.12 µM | 67 ± 2.02 µM |  | 
O=C(Nc1ccc(F)cc1)Nc1nnc(Sc2ncnc3sc4c(c23)CCN(Cc2ccncc2)C4)s1 [Compound 11r, 1-(4-fluorophenyl)-3-(5-((7-(pyridin-4-ylmethyl)-5,6,7,8-tetrahydropyrido[4',3':4,5]thieno[2,3-d]pyrimidin-4-yl)thio)-1,3,4-thiadiazol-2-yl)urea] | 66.3 ± 1.24 µM | 5.69 ± 0.03 µM | 67.5 ± 1.38 µM | 18.98 ± 0.11 µM | 48.2 ± 0.62 µM |  | 
O=C(Nc1ccc(Cl)cc1)Nc1nnc(Sc2ncnc3sc4c(c23)CCN(Cc2ccncc2)C4)s1 [Compound 11u, 1-(4-chlorophenyl)-3-(5-((7-(pyridin-4-ylmethyl)-5,6,7,8-tetrahydropyrido[4',3':4,5]thieno[2,3-d]pyrimidin-4-yl)thio)-1,3,4-thiadiazol-2-yl)urea] | 60.7 ± 1.13 µM | 8.1 ± 0.02 µM | 27.8 ± 1.84 µM | 4.96 ± 0.18 µM | 2.08 ± 0.01 µM | 188 to 190 °C | ~30 folds
O=C(Nc1ccccc1)Nc1nnc(Sc2ncnc3sc4c(c23)CCN(Cc2ccccc2)C4)s1 [Compound 11a, 1-(5-((7-benzyl-5,6,7,8-tetrahydropyrido[4',3':4,5]thieno[2,3-d]pyrimidin-4-yl)thio)-1,3,4-thiadiazol-2-yl)-3-phenylurea] | 24.5 ± 0.72 µM | 23.34 ± 0.18 µM | 7.34 ± 0.01 µM | 34.4 ± 1.64 µM | 19.06 ± 0.12 µM | 230 to 232 °C | 
O=C(Nc1ccc(Cl)c(C(F)(F)F)c1)Nc1nnc(Sc2ncnc3sc4c(c23)CCN(Cc2ccccc2)C4)s1 [Compound 11k, 1-(5-((7-benzyl-5,6,7,8-tetrahydropyrido[4',3':4,5]thieno[2,3-d]pyrimidin-4-yl)thio)-1,3,4-thiadiazol-2-yl)-3-(4-chloro-3-(trifluoromethyl)phenyl)urea] | 63.5 ± 1.37 µM | 24.66 ± 0.24 µM | 28.46 ± 0.25 µM | 23.15 ± 0.21 µM | 37.56 ± 0.31 µM |  | 
O=C(Nc1cccc(C(F)(F)F)c1)Nc1nnc(Sc2ncnc3sc4c(c23)CCN(Cc2ccccc2)C4)s1 [Compound 11j, 1-(5-((7-benzyl-5,6,7,8-tetrahydropyrido[4',3':4,5]thieno[2,3-d]pyrimidin-4-yl)thio)-1,3,4-thiadiazol-2-yl)-3-(3-(trifluoromethyl)phenyl)urea] | 46.8 ± 1.13 µM | 68.94 ± 0.63 µM | 63 ± 0.64 µM | 73.8 ± 2.92 µM | 67.1 ± 1.85 µM | 181 to 183 °C | 
O=C(Nc1nnc(Sc2ncnc3sc4c(c23)CCN(Cc2ccncc2)C4)s1)Nc1ccccc1Cl [Compound 11s, 1-(2-chlorophenyl)-3-(5-((7-(pyridin-4-ylmethyl)-5,6,7,8-tetrahydropyrido[4',3':4,5]thieno[2,3-d]pyrimidin-4-yl)thio)-1,3,4-thiadiazol-2-yl)urea] | 30.5 ± 0.12 µM | 4.69 ± 0.09 µM | 26.26 ± 0.24 µM | 8.94 ± 0.03 µM | 6.87 ± 0.03 µM | 229 to 231 °C | 
O=C(Nc1cccc(F)c1)Nc1nnc(Sc2ncnc3sc4c(c23)CCN(Cc2ccccc2)C4)s1 [Compound 11e, 1-(5-((7-benzyl-5,6,7,8-tetrahydropyrido[4',3':4,5]thieno[2,3-d]pyrimidin-4-yl)thio)-1,3,4-thiadiazol-2-yl)-3-(3-fluorophenyl)urea] | 65.6 ± 1.74 µM | 13 ± 0.18 µM | 9.84 ± 0.06 µM | 42.8 ± 1.82 µM | 27.48 ± 0.07 µM | 144 to 146 °C | 
Cc1ccc(NC(=O)Nc2nnc(Sc3ncnc4sc5c(c34)CCN(Cc3ccccc3)C5)s2)cc1 [Compound 11c, 1-(5-((7-benzyl-5,6,7,8-tetrahydropyrido[4',3':4,5]thieno[2,3-d]pyrimidin-4-yl)thio)-1,3,4-thiadiazol-2-yl)-3-(p-tolyl)urea] | 70.2 ± 2.71 µM | 42.87 ± 0.32 µM | 24.6 ± 0.39 µM | 32.21 ± 0.3 µM | 26.12 ± 0.15 µM |  | 
